Results: ChEMBL document CHEMBL3507680, “University of Dundee, Gates Library screen for HepG2 cell viability”

Experiment: Human HepG2 cell viability assay in 384 well format
Format: toxicity, cell-based
Parameters: dose 125 nL, time 70.5 hour; cytotoxicity at 70.5 h: concentration not given beside the values
Conditions: HepG2 cells, read-out: Inhibition

SMILES | cytotoxicity at 70.5 h [%]
O=C(CC1CC1)N1CCCn2nnc(CNc3ncccn3)c2C1 | -1.8
CN1C(=O)C(c2cccnc2)CC12CCN(CCO)CC2 (configuration not stated) | -0.847
Cc1noc(C)c1CN1C[C@H]2CNC[C@H]2C1 | -2.52
CCC1=N[C@@]2(CC[C@@H]3CN(C(=O)NCc4ccccc4)C[C@@H]32)C(=O)N1 | -7.28
CCn1cc2c(n1)C(COC)CN(Cc1ccccn1)C2 (configuration not stated) | 29.7
Cc1ccc(S(=O)(=O)N2CCC3(CC(C(=O)NCC4CC4)=NO3)C2)cc1 (configuration not stated) | -8.09
CC(C)NC(=O)N1CCC2(CC(=O)N(c3cccc(C#N)c3)C2)C1 (configuration not stated) | 2.44
O=C(NCc1ccccc1)[C@H]1C[C@@H]2CN(S(=O)(=O)C3CC3)C[C@H]1O2 | -10.1
CNC(=O)N1C[C@H]2C[C@H](C(=O)Nc3ccccc3)[C@@H](C1)O2 | -7.41
c1cnc(OCc2nnc3n2CCN(CC2CC2)C3)nc1 | 0.759
C1CC(CN2CCOCC3(CCN(C4CCOCC4)C3)C2)CCO1 (configuration not stated) | -6.07
CCc1ccc(S(=O)(=O)N2CCC3(CC(C(=O)NC)=NO3)C2)cc1 (configuration not stated) | -10.7
O=C(NCC1CC1)[C@H]1C[C@H]2OCC[C@H]2N(Cc2ccsc2)C1 | -4.19
CN(C)CC(=O)N1CCC2(CCN(Cc3ccccn3)C2=O)C1 (configuration not stated) | -22.9
O=C1CC(c2ccncc2)C2(CCN(CCO)CC2)N1 (configuration not stated) | -10.4
COCC(=O)N1CCC2(CCN(Cc3ccccn3)CC2)CC1 | -23.5
O=C1NCCN(CC2CC2)C12CCN(Cc1ccc3c(c1)OCO3)CC2 | 41.2
O=C1NCCN(CC2CC2)C12CCN(Cc1ccco1)CC2 | 12.8
O=C(c1ccco1)N1CCC2(CC1)C(=O)NCCN2CC1CC1 | -26.8
CCOC1COC2(CCN(S(=O)(=O)c3cccc(F)c3)CC2)C1 (configuration not stated) | -15.5
CNc1cc(-c2ccncc2)ncn1 | 23.1
Cc1ncncc1-c1ccnc(N)n1 | -2.72
Cc1ncncc1-c1ccnc(N(C)C)n1 | -1.27

SMILES | cytotoxicity at 70.5 h [%]
C[C@@H](CO)Nc1cc(-c2cn[nH]c2)ncn1 | -0.96
Cc1ccnc(N2CCC(C(N)=O)CC2)n1 | 32.9
CC[C@@H](CO)Nc1cc(-c2cn[nH]c2)ncn1 | 3.42
CCN1CC(=O)c2sc(NC(C)C)nc2C1 | 5.33
CC(C)(CO)Nc1cc(-c2ccccc2)ncn1 | -2.92
CC(=O)NCC[C@H]1CC(C)(C)Oc2ccccc21 | -4.17
CC(C)(C)CCNc1nccc(-c2c[nH][nH]c2=O)n1 | -4.19
CC(C)Nc1nc2c(s1)C(=O)CN(CC1CC1)C2 | 2.03
OCCNc1nccc(-c2c[nH]nc2-c2ccco2)n1 | 4.01
CN(C)c1ncc2c(n1)N(C)CCN(CC1CC1)C2=O | -2.69
COc1ccc2c(c1)[C@@H](CCNC(C)=O)CC(C)(C)O2 | -1.01
O=c1[nH][nH]cc1-c1ccnc(NCCc2cccnc2)n1 | -2.07
O=c1[nH][nH]cc1-c1ccnc(NCCN2CCCCC2)n1 | 30.8
c1cc(-c2n[nH]cc2-c2ccnc(N3CCCC3)n2)ccn1 | -2.36
O=c1[nH][nH]cc1-c1ccnc(NCCCN2CCOCC2)n1 | -1.38
Cc1ncc(-c2ccnc(NC3CC3)n2)c(-c2cccnc2)n1 | 14.2
CC(=O)Nc1nc2c(s1)C(C)(C)Nc1ccccc1S2 | -2.23
COc1ccc2[nH]cc(-c3ccnc(NC4CCCC4)n3)c2c1 | -0.782
N[C@@H]1CCN(Cc2cc(-c3ccccc3OC(F)(F)F)no2)C[C@H]1O | -10.6
Nc1cc(-c2nccnc2N2CCCC2)c2cc[nH]c2n1 | -11.5
COc1ccccc1OCCCc1cncc(C(N)=O)c1 | -14.6
Cc1nonc1C1CCCN1C(=O)CCc1cc2n(n1)CCCNC2 (configuration not stated) | -7.72
COc1cc(CN2CCCC2)ccc1Oc1ncccc1C(F)(F)F | 28.7

SMILES | cytotoxicity at 70.5 h [%]
O=C(CN1CCOCS1(=O)=O)NCc1ccccc1 | 25.7
CC(C)N1CCC(CC(=O)NC(C(=O)O)c2ccc(F)cc2)CC1 (configuration not stated) | -10.8
CCc1nnc(N2C[C@@H](CN(C)CCO)[C@@H](CO)C2)s1 | -12.4
CCc1cc(C(=O)N[C@H]2CN(CCS(C)(=O)=O)C[C@@H]2C2CC2)[nH]n1 | -13.2
COc1ccccc1CN1C(=O)O[C@@H]2CN(S(=O)(=O)N(C)C)C[C@@H]21 | -0.664
CCc1nccn1CCCn1ccnc1-c1[nH]cnc1C | 5.17
COc1cccc(N2CCN(C(=O)CO)CC2=O)c1 | -2.57
O=C(O)[C@@H]1CN(C(=O)c2ccc(F)c(F)c2)C[C@H]1c1cccc(F)c1 | -11.2
CCCN1CC2(CCN(c3ncc(F)cn3)CC2)CC1C(=O)O (configuration not stated) | -7.12
CC(C)OC(=O)N1CCC(Cc2ccc(C(=O)O)cc2)C1 (configuration not stated) | 27.1
C[C@@H]1CN(C2(C(=O)N3CC[C@H](O)C3)Cc3ccccc3C2)C[C@H](C)O1 | -11.9
CC(NC(=O)C1CCCC1)c1nncn1C(C)C (configuration not stated) | 9.12
Clc1ccccc1-c1cc(CNc2ncnc3c2CCNCC3)no1 | 12.2
O=C(CC1=CSC2=NCCN12)N1CCCC(CCc2cccc(F)c2)C1 (configuration not stated) | -13.5
O=C(c1ccoc1)N1CCn2nc(CN3CCSCC3)cc2C1 | 17.6
CCC(C)Oc1ccc(CNCCNS(C)(=O)=O)cc1Cl (configuration not stated) | -0.417
CCO[C@H]1C[C@@H](O)C12CCN(S(=O)(=O)c1ccccc1OC)CC2 | -13.9
CNc1nc(C)c(C(=O)N2CCCCC2CCN2CCOCC2)s1 (configuration not stated) | -0.313
COc1ccccc1OC1CN(C(=O)Cc2c(C)nc(N)nc2C)C1 | 1.7
Cc1cc(N2CCN(Cc3ccccc3)CC(O)C2)nc(N)n1 (configuration not stated) | -2.11
O=C(CCN1CCCCO1)N1CCC(CO)(CCc2ccccc2)CC1 | -10.2
CO[C@H]1CN(C(=O)c2nc(-c3ccccc3)[nH]c2C)CC[C@H]1N | 25.8
CCn1ncnc1CN1CCc2[nH]cnc2C1Cc1ccccc1 (configuration not stated) | -5.67

SMILES | cytotoxicity at 70.5 h [%]
COCCn1ccnc1C1CCN(Cc2ccccc2C#N)CC1 | -8.7
Cc1ccn(CCNc2ncnc3c2CCN(c2cnccn2)CC3)n1 | 2.31
C[C@@H]1CN(Cc2cc(C3CCCCC3)no2)CC[C@@]1(O)C1CC1 | 6.92
COCC(=O)N1CCc2[nH]nc(-c3ccc4c(c3)OCO4)c2C1 | -3.34
CCn1ncnc1CN1CCc2[nH]cnc2C1CCc1ccccc1 (configuration not stated) | -4.41
Cc1oc(-c2cccc(F)c2F)nc1CN(C)CCO | -7.35
CCOCc1nc(-c2ccc(F)cc2Cl)n(C)n1 | -15.1
OC(c1ccccc1)c1cn(C2CCN(Cc3nccs3)CC2)nn1 (configuration not stated) | -11.3
Cc1ccc(N2CCCC(c3[nH]ncc3-c3ccccc3)C2)nn1 (configuration not stated) | -8.56
NCc1cc(-c2ccccc2)n2nccc2n1 | -10.1
COc1ccc(-c2cc(CN)nc3ccnn23)cc1 | -12.4
CSc1ccc(-c2cc(CN)nc3ccnn23)cc1 | -12.2
CN(C)C(=O)[C@@]12CCO[C@@H]1CCN(Cc1ccc3c(c1)OCO3)C2 | 1.17
CCOC1COC2(CCN(c3cccc(C)n3)CC2)C1 (configuration not stated) | -2.34
CCN(CC)Cc1cc(=O)n2c(n1)CN(C(=O)c1ccnnc1)CCC2 | -3.81
Cc1noc(C)c1CN1C[C@@H]2C[C@@H](C)O[C@@H]2C1 | -3.08
CCS(=O)(=O)N1C[C@@H](OCc2cccnc2)[C@H]2OCCC[C@H]21 | 6.52
CCOCC1CN(S(C)(=O)=O)Cc2cnn(CC3CCOCC3)c21 (configuration not stated) | -0.335
Cn1cc(CN2C[C@@H]3COC[C@]3(CNC(=O)c3ccsc3)C2)cn1 | -5.87
CN(C)C(=O)[C@@H]1C[C@@H]2CCN(Cc3ccc4c(c3)OCO4)C[C@@H]2O1 | 1.53
O=C(c1cnccn1)N1CCCC2(COCCN(CC3CC3)C2)C1 (configuration not stated) | -20.3
Cn1cc(CN2CCCC23CCN(C(=O)c2cccn2C)CC3)cn1 | -14.9
Cc1ccc(C(=O)N2Cc3c(CN4CCCCC4)nn(C)c3C2)cc1C | -16.2

SMILES | cytotoxicity at 70.5 h [%]
O=S(=O)(C1CC1)N1CCC2(CC1)CC(Oc1cccnc1)CO2 (configuration not stated) | -11.5
CCc1ncnc2c1CCN(Cc1ccc(OC)cc1)CC2 | -8.97
c1cc(CN2Cc3nnn(CC4CC4)c3C(COCC3CC3)C2)co1 (configuration not stated) | -8.27
COCC1CN(CC2CC2)Cc2nn(C)cc21 (configuration not stated) | 13.1
Cc1ccc(N2CCC3(CCCN(C(=O)c4cccnc4)C3)C2)nn1 (configuration not stated) | 18.8
CC(=O)N1CC(=O)N(c2ccccc2)CC12CCN(CC1CC1)C2 (configuration not stated) | 7.19
CN(C)C[C@H]1OC[C@@H]2CCN(S(=O)(=O)c3cccs3)C[C@@H]21 | 12.4
CN1CCCn2c(nc(CNC(=O)c3ccsc3)cc2=O)C1 | -15.1
CN1CC(=O)N(c2cnn(C)c2)CC12CCN(C(=O)c1ccsc1)C2 (configuration not stated) | -7.55
CN1CC(=O)N(c2ccsc2)CC12CCN(C(=O)c1ccccc1)C2 (configuration not stated) | -12.7
c1coc(CN2CCCn3c(CN4CCOCC4)nnc3C2)c1 | 1.6
Cc1ccc(CN2CCC3(CC2)CC(c2cccnc2)C(=O)N3C)o1 (configuration not stated) | -2.25
Fc1cnc(N2CCCC3(CCN(Cc4ccsc4)C3)C2)nc1 (configuration not stated) | 4.29
c1ccc(CN2CCOCC3(CCN(C4CCOCC4)C3)C2)cc1 (configuration not stated) | -2.29
c1ccc(OCc2nnc3n2CCN(CC2CCOCC2)C3)nc1 | -0.459
CN(Cc1ccco1)[C@@H]1CN(Cc2ccc(F)cc2)C[C@@H]2CCCO[C@@H]21 | 2.25
Cc1cccc(CN2C[C@@H]3COC[C@]3(CNC(=O)c3ccsc3)C2)n1 | -8.41
Cc1ccc(CN2CCCn3c(nc(CN4CCCC4)cc3=O)C2)s1 | -8.86
Cc1nc(CN2CCO[C@H]3[C@@H](OCc4ccccn4)CC[C@@H]32)cs1 | -23.4
COc1ccc(CN2C[C@@H]3COC[C@]3(CN(C)C)C2)cc1 | -12.6
